Consider six compounds from publication PMC6327030 (Nature Communications, 2019).

Where two headings read alike, the source gives them in different places. Bounds are passed on as bounds.

Usually IC50 stands for the concentration at which inhibition is half-maximal. Usually ΔTm stands for the change in melting temperature against a reference sample. Broadly, the Km is the substrate concentration at which the rate is half of its maximum. By inhibition is commonly meant the relative decrease from the control value, in per cent.

Assay [1] addresses T1, baculosome-derived full-length SQLE (Homo sapiens, UniProt Q14534).
T1 construct: we overexpressed full-length SQLE in Sf9 cells using a baculovirus system; made in house; host or cells: Sf9 insect cells (baculovirus), membrane preparation (baculosomes)
Put plainly: Biochemistry assay of SQLE activity with SQLE baculosomes (LC-MS/MS detection of 2,3-oxidosqualene). It is filed as biochemical. The settings on record: for mechanism of inhibition with respect to squalene substrate: squalene varied from 50 to 0.39 μM, fixed inhibitor concentrations. How it is done: pFastBac1-SQLE was transformed into DH10Bac E. coli (Thermo Fisher) for transposition into bacmid, and positive clones were selected on a blue/white LB agar plate. Recombinant bacmid as isolated from positive clones with the PureLink Hipure Plasmid DNA miniprep kit (Thermo Fisher) and transfected into Sf9 cells (Thermo Fisher) to generate recombinant virus stocks, which were amplified further before Sf9 infection at a multiplicity of infection of two. Infected cells were harvested 72 h post infection and resuspended in phosphate buffered saline, then disrupted by sonication. The cell lysate was clarified by centrifugation at 1500× g for 10 min, the supernatant was further centrifuged at 10,000× g for another 10 min to remove cell debris; and then the supernatant was harvested and centrifuged at 100,000× g for 90 min. The pellet of SQLE baculosomes was collected and homogenized in the buffer (50 mM potassium phosphate, 20% Glycerol, pH7.0) by micro-electric homogenizer (IKA Works, Germany). The protein concentration was determined by the Bradford method. SQLE baculosomes were aliquoted and stored at −80 ℃. The abundance of SQLE in the baculosomes compared to other subcellular fractions was evaluated by immunoblotting against the N-terminal his-tag. Y195A, and Y195F mutant baculosomes were prepared as described above from Sf9 cells infected with engineered viruses.
All biochemistry assay buffers contained 100 mM Tris, 0.1% triton X-100, 1 mM EDTA, 0.1 mM FAD and 1 mM NADPH. […] The reaction was quenched by adding 100 μL of 10 mM ammonium acetate buffer, followed by addition of 600 μL ethyl acetate containing 0.4 mg/mL butylated hydroxytoluene (BHT) to prevent oxidation. The mixture was vortexed for 30 min to extract 2,3-oxidosqualene, then centrifuged at 4000 rpm for 10 min. The supernatant was transferred to a new plate for LC-MS/MS detection. […] Kinetic analysis for HLMs (Sekisui Xenotech, LLC, Kansas City, KS) was performed as for baculosomes, with HLM concentration at 0.5 mg/ml. Kinetic analysis for recombinant SQLE was performed as for baculosomes, with the addition of 1.5 μg/ml recombinant P450R (Sigma-Aldrich).
Samples were dried down under nitrogen and then reconstituted with 70 μL of 0.2 mg/mL BHT in acetonitrile. An aliquot of 7.5 μL was injected into the UPLC-MS/MS system. The instrument setup consisted of an AB Sciex API-6500 Mass Spectrometer (AB Sciex, USA) equipped with a Waters UPLC Acquity (Waters, USA). The UPLC separation was performed on an ACQUITY UPLC BEH C18 (2.1 × 50 mm, 1.7 µm, Waters) at 40 ℃. Formic acid in water (0.1%, v/v, mobile phase A) and a mixture of acetonitrile and isopropanol (80:20, v/v with 0.1% formic acid, mobile phase B) were employed as the mobile phase. An isocratic elution of 98% mobile phase B was used and run time was 1.5 min. The flow rate of mobile phase was set at 0.6 mL/min.

The test system of assay [2] is human SQLE. Conditions: cited from earlier work; for IC50: previously reported.
Assay [3] concerns the target T2, SQLE (118–574) (Homo sapiens, UniProt Q14534).
T2 construct: to the N-terminally truncated SQLE (118–574), resulting in the selection of this construct for further studies; His6-MBP (TEV site) (N, cleaved yes); made in house; host or cells: Rosetta (DE3) E. coli
Kind of assay: Thermal shift assay, N-terminally truncated SQLE (118–574). The assay is classed as binding. Conditions: 100 μM ligands. As to the method: (§1) Thermal shift assays were performed in 96-well PCR plates using an RT-PCR instrument (ABI 7500 Fast, Applied Biosystems, USA). Standard assay conditions (20 μL) contain 12.5 μL protein (1 mg/mL) in storage buffer 50 mM Tris (pH 8.0), 500 mM NaCl, 5% glycerol and 100 μM corresponding ligands, 5 μL Protein Thermal Shift^TM buffer, and 2.5 μL of the ROX dye (8 × , Protein Thermal Shift^TM Dye Kit, Applied Biosystems, USA). All experiments were performed in triplicate and reaction mixtures were pre-incubated at 4 °C for 1 h. […] For the detergent screening, the SQLE protein was buffer exchanged to 500 mM NaCl, 50 mM Tris-HCl (pH 8.0) containing different detergents using Superdex^TM 200 Increase 10/300 GL gel-filtration column (GE Healthcare, USA) and assayed as described above.

Assay [4] deals with T3, SQLE (118-488) (Homo sapiens, UniProt Q14534).
T3 construct: Thermal shift assay fluorescence signals obtained for SQLE (118-488), with and without FAD; made in house; host or cells: Rosetta (DE3) E. coli
Put plainly: Thermal shift assay, SQLE (118-488). Conditions: 100 μM ligands. The assay is classed as binding. As to the method:
as §1

For assay [5], the target named is T4, endogenous SQLE in human liver microsomes (Homo sapiens, UniProt Q14534).
T4 construct: human liver microsomes (HLM) which have the advantage of providing endogenous SQLE; tissue Sekisui Xenotech, LLC, Kansas City, KS; host or cells: human liver microsomes
Put plainly: HLM assay of SQLE activity (human liver microsomes, LC-MS/MS). The assay is classed as biochemical. As to the method:
All biochemistry assay buffers contained 100 mM Tris, 0.1% triton X-100, 1 mM EDTA, 0.1 mM FAD and 1 mM NADPH. […] The reaction was quenched by adding 100 μL of 10 mM ammonium acetate buffer, followed by addition of 600 μL ethyl acetate containing 0.4 mg/mL butylated hydroxytoluene (BHT) to prevent oxidation. The mixture was vortexed for 30 min to extract 2,3-oxidosqualene, then centrifuged at 4000 rpm for 10 min. The supernatant was transferred to a new plate for LC-MS/MS detection. […] Kinetic analysis for HLMs (Sekisui Xenotech, LLC, Kansas City, KS) was performed as for baculosomes, with HLM concentration at 0.5 mg/ml. […] (Sigma-Aldrich). […] An aliquot of 7.5 μL was injected into the UPLC-MS/MS system. The instrument setup consisted of an AB Sciex API-6500 Mass Spectrometer (AB Sciex, USA) equipped with a Waters UPLC Acquity (Waters, USA). […] Formic acid in water (0.1%, v/v, mobile phase A) and a mixture of acetonitrile and isopropanol (80:20, v/v with 0.1% formic acid, mobile phase B) were employed as the mobile phase. An isocratic elution of 98% mobile phase B was used and run time was 1.5 min. The flow rate of mobile phase was set at 0.6 mL/min.
On the technique in general: Liver microsomes are a subcellular fraction often used to study metabolism.

For assay [6], the target named is T5, recombinant N-terminally truncated SQLE (118–574) (Homo sapiens, UniProt Q14534).
T5 construct: First, we used the recombinant N-terminally truncated SQLE (118–574); His6-MBP (TEV site) (N, cleaved yes); made in house; host or cells: Rosetta (DE3) E. coli
Put plainly: Enzymatic assay with recombinant SQLE (118–574) plus recombinant P450R. It is filed as biochemical. Conditions: saturating squalene, varied FAD. From the text:
The cDNA of human SQLE (NCBI accession number: NM_003129.3) was cloned into pET28a expression vector (Supplementary Table 2). Multiple constructs were designed with six unique N-termini (starting at 1, 101, 111, 118, 124, 144) and four C-termini (ending at 488, 518, 543, 574), along with different affinity/solubilization tags expressed in Rosetta (DE3) E. coli (Shanghai Weidi Biotechnology). Soluble proteins were obtained for four of the expression constructs with N- and C-terminal boundaries corresponding to 101-574, 118-574, 101-488, and 118-488 and were used in crystallization trials. The His6-MBP-TEV-SQLE (118-574) construct in pET28a vector yielded crystals for structure determination. A detergent screen performed using thermal shift assay led to the identification of 3-[(3-cholamidopropyl)dimethylammonio]-1-propanesulfonate (CHAPS) as having the most stabilizing effect. CHAPS detergent was subsequently used for all extraction, purification and crystallization studies of SQLE protein. The plasmid bearing the sequence encoding SQLE was transformed into Rosetta (DE3) E. coli. Cells were grown at 37 °C and induced with 1 mM isopropyl β-D-1-thiogalactopyranoside for about 20 h at 15 °C in Luria Broth media. […] Protein was determined to be > 95% pure by SDS-PAGE and eluted as a monomer as assessed by SEC. […]

The mark [7] stands for this setting: baculosome-derived SQLE, 1 h pre-incubation, 100 μM squalene, read-out: IC50.
The mark [8] stands for this setting: IC50, time-dependent inhibition, before increasing incubation time, compound incubation time varied from 0 to 6 h, starting value, 15 min reaction.
Setting [9] is: compound incubation time varied from 0 to 6 h.

T1 sequence (Q14534 whole entry): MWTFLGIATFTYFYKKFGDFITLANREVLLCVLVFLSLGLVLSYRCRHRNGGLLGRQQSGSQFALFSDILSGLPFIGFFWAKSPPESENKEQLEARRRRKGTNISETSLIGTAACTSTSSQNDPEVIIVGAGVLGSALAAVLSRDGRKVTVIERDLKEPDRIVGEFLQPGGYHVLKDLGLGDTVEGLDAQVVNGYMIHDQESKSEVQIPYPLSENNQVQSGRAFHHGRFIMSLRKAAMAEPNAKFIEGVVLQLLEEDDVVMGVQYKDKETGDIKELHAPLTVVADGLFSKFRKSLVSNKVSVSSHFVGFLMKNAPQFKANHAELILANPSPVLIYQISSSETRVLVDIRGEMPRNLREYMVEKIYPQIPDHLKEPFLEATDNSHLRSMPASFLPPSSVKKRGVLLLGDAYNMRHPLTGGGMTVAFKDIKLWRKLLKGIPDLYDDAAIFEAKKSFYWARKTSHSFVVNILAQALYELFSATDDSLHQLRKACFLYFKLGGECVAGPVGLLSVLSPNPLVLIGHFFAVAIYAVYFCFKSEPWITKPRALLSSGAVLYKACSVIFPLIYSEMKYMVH
T4 sequence (Q14534 whole entry): as above
T3 sequence (Q14534 118-488): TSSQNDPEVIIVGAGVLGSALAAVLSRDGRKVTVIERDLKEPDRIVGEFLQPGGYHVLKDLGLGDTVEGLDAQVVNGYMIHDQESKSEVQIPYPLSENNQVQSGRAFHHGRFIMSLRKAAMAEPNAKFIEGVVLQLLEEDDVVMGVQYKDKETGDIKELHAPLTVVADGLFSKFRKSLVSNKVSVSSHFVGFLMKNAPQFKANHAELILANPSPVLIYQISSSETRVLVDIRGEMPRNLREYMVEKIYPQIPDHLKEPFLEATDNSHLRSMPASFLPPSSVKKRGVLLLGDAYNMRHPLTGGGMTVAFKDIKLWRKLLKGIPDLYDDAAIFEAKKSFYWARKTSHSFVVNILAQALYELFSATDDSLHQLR
T2 sequence (Q14534 118-574): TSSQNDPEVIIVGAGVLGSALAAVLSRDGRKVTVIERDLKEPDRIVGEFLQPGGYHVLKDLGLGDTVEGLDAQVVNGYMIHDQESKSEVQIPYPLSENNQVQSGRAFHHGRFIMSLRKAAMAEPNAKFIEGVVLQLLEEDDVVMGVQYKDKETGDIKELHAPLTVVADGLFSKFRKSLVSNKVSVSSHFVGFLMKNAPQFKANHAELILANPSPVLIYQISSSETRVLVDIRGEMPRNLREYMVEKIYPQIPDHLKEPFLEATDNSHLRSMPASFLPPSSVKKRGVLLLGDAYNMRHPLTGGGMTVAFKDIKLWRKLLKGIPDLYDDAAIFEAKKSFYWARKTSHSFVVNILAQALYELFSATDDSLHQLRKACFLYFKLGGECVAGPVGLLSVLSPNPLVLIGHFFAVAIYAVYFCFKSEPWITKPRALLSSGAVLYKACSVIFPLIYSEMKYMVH
T5 sequence (Q14534 118-574): as above

As for `CCN(CC#CC#CC(C)(C)OC)Cc1cccc(OC[Si](C)(C)c2cccc(C)c2)c1` [Cmpd-4′′.ia], the IC50 in assay [1] (setting [7]) is more than 100000 nM.
On to `CCN(CC#CC#CC(C)(C)OC)Cc1cccc(OC[Si](C)(C)c2ccccc2C)c1` [Cmpd-4′′], for which the concentration for half-maximal inhibition (IC50) was 800 nM in assay [1] (setting [8]), 69 nM in assay [1] (setting [7]) and 10 to 60 nM in assay [2]. In addition, the “time dependence of inhibition” value in assay [1] (setting [9]) was “time-dependent inhibition”. In addition, the “mechanism of inhibition with respect to squalene substrate” value in assay [1] is “non-competitive inhibition”.
Turning to `Cc1cc2nc3c(=O)[nH]c(=O)nc-3n(C[C@H](O)[C@H](O)[C@H](O)COP(=O)(O)OP(=O)(O)OC[C@H]3O[C@@H](n4cnc5c(N)ncnc54)[C@H](O)[C@@H]3O)c2cc1C` [FAD, flavin adenosine dinucleotide], the ΔTm was determined as 2.1 °C in assay [3] (Supplementary Figure 1c) and 4.7 °C in assay [4] (Supplementary Figure 1c). Moreover, the “mean Tm” value in assay [3] (control Tm 48.0) stood at 50.1 °C; in assay [4] (control Tm 44.0), 48.7 °C. In addition, the Km in assay [1] (SQLE baculosome, saturating squalene, varied FAD) was found to be 8.1 ± 0.6 µM; in assay [5] (HLMs, saturating squalene, varied FAD), 9.6 ± 0.5 µM; in assay [6], 5.2 ± 0.5 µM.
For the compound `CCN(C/C=C/C#CC(C)(C)C)Cc1cccc(OCc2cc(-c3ccccc3)cs2)c1` [NB-598.ia], the IC50 in assay [1] (setting [7]) is more than 100000 nM.
As to `CCN(C/C=C/C#CC(C)(C)C)Cc1cccc(OCc2cc(-c3ccsc3)cs2)c1` [NB-598], the IC50 in assay [1] (setting [8]) was 120 nM; in assay [1] (IC50, time-dependent inhibition, upon increasing incubation time, compound incubation time varied from 0 to 6 h, final value, 15 min reaction), 30 nM; in assay [1] (setting [7]) it was 63 nM; in assay [2], 10 to 60 nM. Moreover, in assay [1] (setting [9]), the “time dependence of inhibition” value is listed as “time-dependent inhibition”. In addition, the “mechanism of inhibition with respect to squalene substrate” value in assay [1] is recorded as “non-competitive inhibition”. For the same compound, the “mechanism of action (previous report)” value in assay [2] is “competitive”.
Consider `CN(C/C=C/C#CC(C)(C)C)Cc1cccc2ccccc12` [terbinafine], for which the inhibition at 100 µM in assay [5] (HLM assay, at 100 µM inhibitor concentration, read-out: maximal inhibition) was found to be 65%.
